Counter-ions that a name gives are not always drawn.
What was measured:
[1] = tested on: OKD48-Luc reporter (Keap1-Nrf2 pathway); assay: Dual luciferase assay using the OKD48-Luc reporter in HeLa cells; assay type: cell-based, human; settings: for response of HeLa cells containing OKD48-Luc (luciferase assay): 8 h or 16 h, 10 μM ASN, 100 μM DEM, 2.5 μg/ml tunicamycin, 1 μM thapsigargin, 1 mM DTT, 100 μM etoposide, 100 μg/ml TTFA, FIG. 5A
Procedure: HeLa cells or HEK293T cells were cultured in a DMEM medium supplemented with 100 U/ml penicillin, 100 μg/ml streptomycin, and 10% fetal bovine serum at 37° C. in an atmosphere containing 5% CO2. The plasmid DNAs were inserted into the cells of each line using the calcium phosphate-DNA precipitation method. In order to test cellular response to agents, the cells were treated with 10 μM sodium arsenite (ASN), 100 μM diethyl maleate (DEM), 200 μM H2O2, 2.5 μg/ml tunicamycin, 1 μM thapsigargin, 1 mM DTT, 100 μM etoposide, or 100 μg/ml thenoyltrifluoroacetone (TTFA) over varying times.
In dual luciferase assay using the OKD48-Luc reporter, phRL-TK (Promega Corp.) was used as an internal control. The HeLa cells were seeded on a 24-well plate and then transfected with the plasmid DNAs. At 24 hours after the transfection, the cells were lysed for luciferase assay. Each reporter activity was measured using a luciferase assay system (Promega Corp.) and a luminometer (Berthold Japan Co., Ltd.). The results were shown as mean±SEM of three experiments. Each value was indicated in terms of fold induction. This fold induction was normalized for that of an untreated sample (NT) (FIG. 5A), an untreated sample (NT) free from Nrf2 overexpression (FIG. 5D), or an untreated sample (NT) free from Keap1 overexpression (FIG. 5E). In this calculation, the fold induction of each NT was defined as 1.0.

[2] = tested on: OKD48-Luc; assay: Western blot of OKD48-Luc protein with anti-Luc antibody in HEK293T cells; assay type: cell-based, human; settings: 8 h treatment, FIG. 5B
Procedure: (§1) HeLa cells were transfected with the OKD48 construct. Luciferase assay was conducted after treatment for 8 hours or 16 hours in the presence or absence of different stressors (sodium arsenite (ASN), diethyl maleate (DEM), H2O2, tunicamycin (Tun), thapsigargin (Tg), dithiothreitol (DTT), etoposide (Etp), and thenoyltrifluoroacetone (TTFA)). […] HEK293T cells were transfected with the OKD48 construct and treated for 8 hours in the presence or absence of different stressors. The cell lysates were analyzed by Western blotting using an anti-Luc antibody or an anti-GAPDH antibody. […] HeLa cells were treated for 8 hours or 16 hours in the presence or absence of different stressors. Then, the cell lysates were analyzed by Western blotting using an anti-Luc antibody or an anti-GAPDH antibody. […]
(§2) The cells were lysed in an SDS sample buffer (50 mM Tris-HCl (pH 6.8), 2% SDS, 50 mM DTT, 10% glycerol, and 1 μg/ml bromophenol blue). […] After the electrophoresis, the proteins were electrically transferred to a polyvinylidene fluoride porous membrane and immunologically detected by a standard approach using a monoclonal antibody against luciferase (Promega Corp.), a monoclonal antibody against GFP (Nacalai Tesque, Inc.), a monoclonal antibody against GAPDH (Cell Signaling Technology, Inc.), or a polyclonal antibody against Nrf2 (Santa Cruz Biotechnology, Inc.).

[3] = tested on: endogenous Nrf2; assay: Western blot of endogenous Nrf2 in HeLa cells; assay type: cell-based, human; settings: 8 h or 16 h treatment, FIG. 5C
Procedure: as §1, §2

[4] = tested on: OKD48-Venus reporter; assay: Fluorescence imaging of OKD48-Venus reporter in HEK293T cells; assay type: cell-based, human; settings: 8 h treatment, FIG. 7A
Procedure: HEK293T cells were transfected with the OKD48-Venus construct and then treated for 8 hours in the presence or absence of sodium arsenite (ASN) or diethyl maleate. Their fluorescence images were obtained together with phase-contrast images. […] HEK293T cells were transfected with the OKD48-Venus construct and then treated for 8 hours in the presence or absence of sodium arsenite (ASN), diethyl maleate (DEM), H2O2, tunicamycin (Tun), thapsigargin (Tg), dithiothreitol (DTT), etoposide (Etp), or thenoyltrifluoroacetone (TTFA). Fluorescence from their cell lysates was measured and normalized for luciferase in the cotransfected cells. In the diagram, n.d. represents not detected. […] Their cell lysates were analyzed by Western blotting using an anti-GFP antibody or an anti-GAPDH antibody. […]
In order to take images of the cells, the HEK293T cells were seeded over a 6-well plate and then transfected with the plasmid DNAs. At 24 hours after the transfection, fluorescence images were obtained using FSX100 (Olympus Corp.). In order to measure the fluorescence of cell lysates, the cells were lysed in a digitonin buffer (50 mM Tris-HCl (pH 7.5), 1 mM EDTA, 10 mM EGTA, and 10 μM digitonin) at 37° C. for 30 minutes. […] The fluorescence intensity of each sample was normalized against the activity of luciferase derived from the cotransfected cells. […]

[5] = tested on: OKD48-transgenic mouse; assay: In vivo luminescence imaging of OKD48-transgenic mouse; settings: 12.5 mg/kg intraperitoneal, 6 hours later
Procedure: The 4.5-kb Spel-SfiI fragment of p(3×ARE)TKbasal-hNrf2(1-433)-GL4-Flag was microinjected as a transgene into the fertilized eggs of a C57BL/6 mouse. […] The obtained mouse was used for in vivo imaging assay. After intraperitoneal injection of D-luciferin (4.5 mg), the mouse was analyzed according to a standard protocol using an in vivo imaging system IVIS (Xenogen Corp.). The experimental protocol involving the animal was approved by the animal research committee of RIKEN (Japan).
In order to monitor oxidative stress in vivo, an OKD48-transgenic mouse having a 3×ARE-driven Nrf2(1-433)-Luc expression gene was prepared. In order to confirm that cells placed under oxidative stress were able to be effectively used in vivo, ASN inducing oxidative stress in various tissues or organs was intraperitoneally injected (12.5 mg/kg) to a transgenic mouse.

O=[As]O [ASN, sodium arsenite]
activity of OKD48-Luc under Nrf2 overexpression, effect of stressor treatment ([1]; HeLa cells with Nrf2 overexpression, 8 h treatment, FIG. 5D): slightly increased | response of HeLa cells containing OKD48-Luc (luciferase assay) [1]: specifically responded | OKD48-Luc at the protein level (Western blot, anti-Luc antibody) [2]: rise | induction of endogenous Nrf2 (Western blot) [3]: significantly induced | fluorescence of OKD48-Venus under microscopic observation [4]: emitted fluorescence | luminescence in the liver ([5]; abdominal section, FIG. 8): strong luminescence | luminescence in other tissues or organs (e.g., stomach and kidney) ([5]; data not shown): detected to some extent

CCOC(=O)/C=C\C(=O)OCC [DEM, diethyl maleate]
response of HeLa cells containing OKD48-Luc (luciferase assay) [1]: specifically responded | OKD48-Luc at the protein level (Western blot, anti-Luc antibody) [2]: rise | induction of endogenous Nrf2 (Western blot) [3]: significantly induced | fluorescence of OKD48-Venus under microscopic observation [4]: emitted fluorescence

O=C(CC(=O)C(F)(F)F)c1cccs1 [thenoyltrifluoroacetone]
response of HeLa cells containing OKD48-Luc (luciferase assay) [1]: rarely activated

O[C@H](CS)[C@H](O)CS (racemic) [dithiothreitol]
response of HeLa cells containing OKD48-Luc (luciferase assay) [1]: rarely activated

COc1cc([C@@H]2c3cc4c(cc3[C@@H](O[C@@H]3O[C@@H]5CO[C@@H](C)O[C@H]5[C@H](O)[C@H]3O)[C@H]3COC(=O)[C@H]23)OCO4)cc(OC)c1O [etoposide]
response of HeLa cells containing OKD48-Luc (luciferase assay) [1]: rarely activated

tunicamycin
response of HeLa cells containing OKD48-Luc (luciferase assay) [1]: rarely activated

C/C=C(/C)C(=O)O[C@H]1C(C)=C2[C@H]([C@@H]1OC(=O)CCCCCCC)[C@@](C)(OC(C)=O)C[C@H](OC(=O)CCC)[C@@]1(O)[C@H]2OC(=O)[C@@]1(C)O [thapsigargin]
response of HeLa cells containing OKD48-Luc (luciferase assay) [1]: rarely activated

From patent US10828378B2, “Nucleic acid construct for expression of oxidative stress indicator and use thereof” (Riken, priority 2011, dated 2020)
